From ChEMBL document CHEMBL2095176, “GSK Tuberculosis Screening Data”
≈ marks a conversion by molar mass, not a printed value.

Test system: Mycobacterium tuberculosis variant bovis BCG
Experiment: microbe, parasite or virus in culture
Type: functional

SMILES | MIC90
N#Cc1nc(-c2ccccc2)oc1S(=O)(=O)c1ccc(Cl)cc1 | 3.6 µM (≈ 1.24 µg/mL)
Cc1nc(SCC(=O)Nc2sccc2C#N)n(Cc2ccc(Cl)cc2)c1C | 8.1 µM (≈ 3.38 µg/mL)
CC(C)COc1ccc(C(=O)Nc2ccc(N3CCN(C)CC3)cc2)cc1 | 6.9 µM (≈ 2.54 µg/mL)
O=C(NC1CCN(Cc2ccsc2)C1)c1sccc1-c1cccc(Cl)c1 (configuration not stated) | 9 µM (≈ 3.63 µg/mL)
Cc1sc2nc(C3CC3)n(C3CCN(CC(=O)N4CCCC4)CC3)c(=O)c2c1C | 5 µM (≈ 2.07 µg/mL)
CC(C)n1ncc2c(C(=O)NCC(c3ccco3)N3CCCC3)cc(-c3ccccc3)nc21 (configuration not stated) | 3.6 µM (≈ 1.6 µg/mL)
c1ccc(-c2csc(CN3CCC4(CC3)OCCc3sccc34)c2)cc1 | 2.7 µM (≈ 1.03 µg/mL)
O=C(C=Cc1ccccc1)N1CCN(Cc2ccc3c(c2)OCO3)CC1 | 2.9 µM (≈ 1.02 µg/mL)
COc1ccc(-c2ccc(Nc3cccc(S(=O)(=O)CCNCC4CCCO4)c3)nc2)cn1 (configuration not stated) | 7 µM (≈ 3.28 µg/mL)
Fc1ccc(-c2cccc3ccc(N4CCNCC4)nc23)cc1 | 8.5 µM (≈ 2.61 µg/mL)
O=C(Nc1nnc(-c2ccccc2)o1)c1ccc(Cl)s1 | 9.8 µM (≈ 3 µg/mL)
CN(C)C1CCN(C(=O)c2csc(-c3cccc(Cl)c3Cl)n2)C1 (configuration not stated) | 8.5 µM (≈ 3.15 µg/mL)
c1ccc(-c2ccc(CNCCn3ccnc3-c3ccccc3)cc2)cc1 | 9.3 µM (≈ 3.29 µg/mL)
Cc1cc(C(=O)Nc2nc(-c3ccccn3)nc3ccsc23)no1 | 2.8 µM (≈ 0.945 µg/mL)
CN(C)CCOc1ccc2c(c1)N(C(=O)Cc1ccc(Cl)c(Cl)c1)CC2 | 9.9 µM (≈ 3.89 µg/mL)
CCOC(=O)c1c(-c2ccccc2)oc2ccc(O)c(CN3CCCC3)c12 | 3.9 µM (≈ 1.43 µg/mL)
Cc1ccc(-c2nnc(NC(=O)c3ccc(Cl)s3)o2)c(C)c1 | 4 µM (≈ 1.34 µg/mL)
Cc1cc(/C=C/c2cccc(C(=O)O)c2)cc(Cl)c1OCC1CCCNC1 (configuration not stated) | 6.7 µM (≈ 2.59 µg/mL)
O=c1oc2ccccc2nc1CS(=O)(=O)c1ccc(Br)cc1 | 4.7 µM (≈ 1.79 µg/mL)

SMILES | MIC90
Clc1ccc(-c2nnc3sc(Cc4cccs4)nn23)cc1 | 7.5 µM (≈ 2.5 µg/mL)
CCOc1ccc(-c2nnc(NC(=O)c3cnc(Cl)c(Cl)c3)o2)cc1 | 9.6 µM (≈ 3.64 µg/mL)
C=CCNCCS(=O)(=O)c1cccc(Nc2ncc(-c3ccc(OC)nc3)cn2)c1 | 3.6 µM (≈ 1.53 µg/mL)
CC(=CC(=O)NC12CC3CC(CC(C3)C1)C2)c1cccc(Cl)c1 | 7.8 µM (≈ 2.57 µg/mL)
COc1ccc(-c2nc(CCNC(=O)c3ccc(OC)cc3OC)cs2)cc1 | 6.4 µM (≈ 2.55 µg/mL)
Fc1ccc(F)c(-c2noc(CC3CCN(Cc4ccsc4)C3)n2)c1 (configuration not stated) | 3.5 µM (≈ 1.26 µg/mL)
Cc1cc(NC(=O)c2cccs2)n(-c2nc(C)c(C)c(=O)[nH]2)n1 | 1.8 µM (≈ 0.593 µg/mL)
O=C(Nc1nc(CN2CCCCC2)cs1)c1ccccc1OCc1ccc(F)cc1 | 6.2 µM (≈ 2.64 µg/mL)
COCCCNCCOc1ccc2ccccc2c1Br | 6.8 µM (≈ 2.3 µg/mL)
CCc1ccc(C2CC(C(F)(F)F)n3ncc(C(=O)NCc4ccc5c(c4)OCO5)c3N2)cc1 (configuration not stated) | 4.8 µM (≈ 2.27 µg/mL)
Cc1ccc(SCCC(=O)Nc2nc(-c3ccccn3)cs2)cc1 | 4.4 µM (≈ 1.56 µg/mL)
O=C(Nc1ccc(Oc2ccccc2)cc1)NC1CCCCC1 | 3.9 µM (≈ 1.21 µg/mL)
Cc1cccc(-c2nc(Nc3ccncn3)c3sccc3n2)n1 | 0.3 µM (≈ 0.0961 µg/mL)
O=c1c2snc(-c3ccc(F)cc3)c2ncn1Cc1ccc(F)cc1 | 9.6 µM (≈ 3.41 µg/mL)
COCCCNC(=N)c1ccc(NC(=O)c2ccc(C(=O)Nc3ccc(C(=N)NCCCOC)cc3)cc2)cc1 | 0.5 µM (≈ 0.272 µg/mL)
O=C(Nc1cccc(Cl)c1)NC12CC3CC(CC(C3)C1)C2 | 6.3 µM (≈ 1.92 µg/mL)
O=C(COc1ccc(Br)cc1Cl)Nc1nc(-c2ccccn2)cs1 | 4.6 µM (≈ 1.95 µg/mL)
CCOC(=O)c1c(-c2ccccc2)oc2ccc(O)c(CN3CCCCC3)c12 | 1.4 µM (≈ 0.531 µg/mL)
NCCCOc1cccc2c(-c3ccncc3)c(-c3cccc(NC(=O)Nc4ccccc4)c3)nn12 | 7.1 µM (≈ 3.4 µg/mL)

SMILES | MIC90
O=C(Nc1ccccc1-c1nc(Cl)cs1)OCCOC1CCNCC1 | 7.6 µM (≈ 2.9 µg/mL)
O=C(Nc1nnc(-c2ccc(Cl)cc2)o1)c1ccc(F)cc1 | 3.9 µM (≈ 1.24 µg/mL)
O=C(Nc1nnc(-c2ccc3c(c2)CCCC3)o1)c1ccc(Br)s1 | 4.3 µM (≈ 1.74 µg/mL)
Cn1cc(C(=O)NCCc2ccccc2)c(=O)c2cc(S(=O)(=O)N3CCCC3)ccc21 | 4.6 µM (≈ 2.02 µg/mL)
Cc1cc(C(=O)Nc2nc(-c3ccccn3)cs2)no1 | 4.6 µM (≈ 1.32 µg/mL)
c1coc(-c2nnc(Sc3ccnc(N4CCN(c5ccncc5)CC4)n3)n2CCCN2CCOCC2)c1 | 2.8 µM (≈ 1.49 µg/mL)
COc1ccc(NC(=O)N2CCCN(c3nc4c(C)c(C)ccc4cc3C#N)CC2)cc1 | 5.3 µM (≈ 2.28 µg/mL)
Cc1cc(Oc2ccc(-n3ccnc3)cc2)nc(N2CCN[C@@H](Cc3ccccc3)C2)n1 | 6.1 µM (≈ 2.6 µg/mL)
COc1cc(C(F)(F)F)nc2ccc(C)c(N)c12 | 9.7 µM (≈ 2.49 µg/mL)
O=C(CNc1ccccc1Nc1ccccc1)N1CCCC1 | 8.2 µM (≈ 2.42 µg/mL)
CCCc1cc(=O)[nH]c(-n2nc(C)cc2NC(=O)c2cc3ccccc3o2)n1 | 1.4 µM (≈ 0.528 µg/mL)
COc1ccc2sc(Nc3nc(-c4ccccn4)cs3)nc2c1 | 3.5 µM (≈ 1.19 µg/mL)
CNc1nc(SCC(=O)N(C)Cc2ccc(Cl)s2)nc2ccccc12 | 8.9 µM (≈ 3.5 µg/mL)
c1ccc2c(Cc3nnc(Sc4ccnc(N5CCN(c6ccncc6)CC5)n4)n3CCN3CCOCC3)c[nH]c2c1 | 2.8 µM (≈ 1.63 µg/mL)
Cc1ccc(C)c(-c2nnc(NC(=O)c3ccc4c(c3)CCCC4)o2)c1 | 3 µM (≈ 1.04 µg/mL)
Cc1ccc2nc(C(F)(F)F)c(C(=O)NCc3ccc4c(c3)OCO4)n2c1 | 1.8 µM (≈ 0.679 µg/mL)
O=C(Nc1nc(-c2ccccn2)cs1)c1cncn1-c1ccccc1 | 4.9 µM (≈ 1.7 µg/mL)
c1ccc(-c2nc(N3CCCNCC3)c3ccccc3n2)cc1 | 2.7 µM (≈ 0.822 µg/mL)
O=c1c2sc(-c3ccc(Cl)cc3)cc2ncn1-c1ccc(OCCN2CCCC2)c(Cl)c1 | 2.1 µM (≈ 1.02 µg/mL)
